From ChEMBL document CHEMBL4130350, “Discovery, mechanism and metabolism studies of 2,3-difluorophenyl-linker-containing PARP1 inhibitors with enhanced in vivo efficacy for cancer therapy” (Eur J Med Chem, 2017)
In brackets after ≈: the same amount, converted by molar mass. Activity calls are given as the source filed them. The rule behind the calls is not given here.

Legend:
MDA-MB-436 [1] = experiment: Antiproliferative activity against human MDA-MB-436 cells after 7 days by CCK8 or SRB assay; format: functional, cell-based; details: MDA-MB-436, 168 h
[2] = Cytotoxicity against BRCA2 deficient Chinese hamster VC8 cells after 3 days by CCK8 or SRB assay; format: functional, cell-based; details: Cricetulus griseus, V-C8, 72 h
V79 = experiment: Cytotoxicity against BRCA2 expressing Chinese hamster V79 cells after 3 days by CCK8 or SRB assay; format: cell-based; details: Cricetulus griseus, V79, 72 h
[3] = Solubility of the compound in water after 24 hrs by HPLC analysis; format: physicochemical
CAPAN-1 [4] = experiment: Cell cycle arrest in human Capan1 cells assessed as accumulation at G0/G1 phase at 0.1 uM after 72 hrs by propidium iodide-staining based flow cytometry (reference value: 63.33%); format: functional
CAPAN-1 [5] = experiment: Cell cycle arrest in human Capan1 cells assessed as accumulation at S phase at 0.1 uM after 72 hrs by propidium iodide-staining based flow cytometry (reference value: 21.42%); format: functional
CAPAN-1 [6] = experiment: Cell cycle arrest in human Capan1 cells assessed as accumulation at G2/M phase at 0.1 uM after 72 hrs by propidium iodide-staining based flow cytometry (reference value: 15.26%); format: functional
CAPAN-1 [7] = experiment: Cell cycle arrest in human Capan1 cells assessed as accumulation at G0/G1 phase at 1 uM after 72 hrs by propidium iodide-staining based flow cytometry (reference value: 63.33%); format: functional
CAPAN-1 [8] = experiment: Cell cycle arrest in human Capan1 cells assessed as accumulation at S phase at 1 uM after 72 hrs by propidium iodide-staining based flow cytometry (reference value: 21.42%); format: functional
CAPAN-1 [9] = experiment: Cell cycle arrest in human Capan1 cells assessed as accumulation at G2/M phase at 1 uM after 72 hrs by propidium iodide-staining based flow cytometry (reference value: 15.26%); format: functional
MDA-MB-436 [10] = experiment: Induction of apoptosis in human MDA-MB-436 cells assessed as early apoptotic cells at 0.1 uM after 96 hrs by Annexin V-FITC/propidium iodide double-staining based flow cytometery (reference value: 1.90%); format: functional
MDA-MB-436 [11] = experiment: Induction of apoptosis in human MDA-MB-436 cells assessed as late apoptotic cells at 0.1 uM after 96 hrs by Annexin V-FITC/propidium iodide double-staining based flow cytometery (reference value: 5.61%); format: functional
MDA-MB-436 [12] = experiment: Induction of apoptosis in human MDA-MB-436 cells assessed as early apoptotic cells at 1 uM after 96 hrs by Annexin V-FITC/propidium iodide double-staining based flow cytometery (reference value: 1.90%); format: functional
MDA-MB-436 [13] = experiment: Induction of apoptosis in human MDA-MB-436 cells assessed as late apoptotic cells at 1 uM after 96 hrs by Annexin V-FITC/propidium iodide double-staining based flow cytometery (reference value: 5.61%); format: functional
MDA-MB-436 [14] = experiment: Induction of apoptosis in human MDA-MB-436 cells assessed as early apoptotic cells at 0.1 uM after 96 hrs in presence of pancaspase inhibitor Z-VAD-FMK by Annexin V-FITC/propidium iodide double-staining based flow cytometery (reference value: 2.32%); format: functional
MDA-MB-436 [15] = experiment: Induction of apoptosis in human MDA-MB-436 cells assessed as late apoptotic cells at 0.1 uM after 96 hrs in presence of pancaspase inhibitor Z-VAD-FMK by Annexin V-FITC/propidium iodide double-staining based flow cytometery (reference value: 5.11%); format: functional
MDA-MB-436 [16] = experiment: Induction of apoptosis in human MDA-MB-436 cells assessed as early apoptotic cells at 1 uM after 96 hrs in presence of pancaspase inhibitor Z-VAD-FMK by Annexin V-FITC/propidium iodide double-staining based flow cytometery (reference value: 2.32%); format: functional
MDA-MB-436 [17] = experiment: Induction of apoptosis in human MDA-MB-436 cells assessed as late apoptotic cells at 1 uM after 96 hrs in presence of pancaspase inhibitor Z-VAD-FMK by Annexin V-FITC/propidium iodide double-staining based flow cytometery (reference value: 5.11%); format: functional
CAPAN-1 [18] = experiment: Antiproliferative activity against human Capan1 cells after 7 days by CCK8 or SRB assay; format: functional, cell-based; details: CAPAN-1, 168 h
MDA-MB-436 [19] = experiment: Induction of apoptosis in human MDA-MB-436 cells assessed as caspase-3/7 activation at 0.1 to 1 uM after 72 hrs by Caspase-Glo 3/7 assay; format: functional, cell-based
MDA-MB-436 [20] = experiment: Antitumor activity against human MDA-MB-436 cells harboring BRCA1 mutant xenografted in nude BALB/cA mouse assessed as tumor growth inhibition at 100 mg/kg, po administered once daily for 21 consecutive days measured twice per week; format: functional; details: MDA-MB-436, po, read-out: TGI
[21] = Half life in Sprague-Dawley rat at 10 mg/kg, iv by LC-MS/MS analysis; format: ADME, organism-based; details: in vivo
[22] = Half life in Sprague-Dawley rat at 20 mg/kg, po by LC-MS/MS analysis; format: ADME, organism-based; details: in vivo
[23] = Clearance in Sprague-Dawley rat at 10 mg/kg, iv by LC-MS/MS analysis; format: ADME, organism-based; details: in vivo
[24] = Volume of distribution in Sprague-Dawley rat at 10 mg/kg, iv by LC-MS/MS analysis; format: ADME, organism-based; details: in vivo
[25] = Cmax in Sprague-Dawley rat at 10 mg/kg, iv by LC-MS/MS analysis; format: ADME, organism-based; parameters: dose 10 mg/kg, route intravenous; details: in vivo
[26] = Cmax in Sprague-Dawley rat at 20 mg/kg, po by LC-MS/MS analysis; format: ADME, organism-based; parameters: dose 20 mg/kg, route oral; details: in vivo
[27] = AUC in Sprague-Dawley rat at 10 mg/kg, iv by LC-MS/MS analysis; format: ADME, organism-based; details: in vivo
[28] = AUC in Sprague-Dawley rat at 20 mg/kg, po by LC-MS/MS analysis; format: ADME, organism-based; details: in vivo
[29] = Oral bioavailability in Sprague-Dawley rat at 20 mg/kg by LC-MS/MS analysis; format: ADME, organism-based; details: in vivo
CAPAN-1 [30] = experiment: Antitumor activity against human Capan1 cells harboring BRCA2 mutant xenografted in nude BALB/cA mouse assessed as tumor growth inhibition at 0.5 mg/kg, po administered once daily for 21 consecutive days measured twice per week; format: functional; details: CAPAN-1, po, read-out: TGI
[31] = Half life in Sprague-Dawley rat at 1 mg/kg, iv by LC-MS/MS analysis; format: ADME, organism-based; details: in vivo
Rattus norvegicus = experiment: Half life in Sprague-Dawley rat at 2 mg/kg, po by LC-MS/MS analysis; format: ADME, organism-based; details: in vivo
[32] = Clearance in Sprague-Dawley rat at 1 mg/kg, iv by LC-MS/MS analysis; format: ADME, organism-based; details: in vivo
[33] = Volume of distribution in Sprague-Dawley rat at 1 mg/kg, iv by LC-MS/MS analysis; format: ADME, organism-based; details: in vivo
[34] = Cmax in Sprague-Dawley rat at 1 mg/kg, iv by LC-MS/MS analysis; format: ADME, organism-based; parameters: dose 1 mg/kg, route intravenous; details: in vivo
[35] = Cmax in Sprague-Dawley rat at 2 mg/kg, po by LC-MS/MS analysis; format: ADME, organism-based; parameters: dose 2 mg/kg, route oral; details: in vivo
[36] = AUC in Sprague-Dawley rat at 1 mg/kg, iv by LC-MS/MS analysis; format: ADME, organism-based; details: in vivo
[37] = AUC in Sprague-Dawley rat at 2 mg/kg, po by LC-MS/MS analysis; format: ADME, organism-based; details: in vivo
[38] = Oral bioavailability in Sprague-Dawley rat at 2 mg/kg by LC-MS/MS analysis; format: ADME, organism-based; details: in vivo
[39] = Stability in mouse plasma at 1 uM up to 60 mins by LC-MS/MS analysis; format: ADME, cell-free; details: read-out: Stability
[40] = Protein binding in mouse plasma at 0.5 to 50 uM after 4 hrs by LC-MS/MS analysis; format: ADME, cell-free; details: read-out: PPB (converted)
[41] = Elimination half-life in mouse liver microsomes at 2 uM up to 60 mins by LC-MS/MS analysis; format: ADME, microsome; details: read-out: beta t1/2
[42] = Apparent permeability across apical to basolateral side in human Caco2 cells after 2 hrs by LC-MS/MS analysis; format: ADME, cell-based; details: Caco-2
[43] = Apparent permeability across basolateral to apical side in human Caco2 cells after 2 hrs by LC-MS/MS analysis; format: ADME, cell-based; details: Caco-2
[44] = Apparent permeability across apical to basolateral side in human Caco2 cells assessed as drug recovery at 5631.3 pmol after 2 hrs by LC-MS/MS analysis; format: ADME, cell-based; details: Caco-2, read-out: Drug recovery
[45] = Apparent permeability across basolateral to apical side in human Caco2 cells assessed as drug recovery at 18593.3 pmol after 2 hrs by LC-MS/MS analysis; format: ADME, cell-based; details: Caco-2, read-out: Drug recovery
Mus musculus [46] = experiment: Toxicity in nude BALB/cA mouse xenografted with human Capan1 cells harboring BRCA2 mutant assessed as mortality at 0.5 mg/kg, po administered once daily for 21 consecutive days measured twice per week; format: organism-based; details: in vivo
Mus musculus [47] = experiment: Toxicity in nude BALB/cA mouse xenografted with human Capan1 cells harboring BRCA2 mutant assessed as weight loss at 0.5 mg/kg, po administered once daily for 21 consecutive days measured twice per week; format: organism-based; details: in vivo

O=C(c1cc(Cc2n[nH]c(=O)c3ccccc23)ccc1F)N1CCN(C(=O)C2CC2)CC1 [OLAPARIB]
IC50 (MDA-MB-436 [1]): 39.3 nM | IC50 [2]: 566 nM | IC50 (V79): 10 to 54.2 µM | solubility at 24 h [3]: 104 µg/mL (≈ 239 µM) | Activity (CAPAN-1 [4]): 51.83% | Activity (CAPAN-1 [5]): 27.2% | Activity (CAPAN-1 [6]): 20.91% | Activity (CAPAN-1 [7]): 22.33% | Activity (CAPAN-1 [8]): 26.14% | Activity (CAPAN-1 [9]): 51.54% | Activity (MDA-MB-436 [10]): 2.5% | Activity (MDA-MB-436 [11]): 9.78% | Activity (MDA-MB-436 [12]): 4.15% | Activity (MDA-MB-436 [13]): 17.75% | Activity (MDA-MB-436 [14]): 3.3% | Activity (MDA-MB-436 [15]): 6.52% | Activity (MDA-MB-436 [16]): 4.79% | Activity (MDA-MB-436 [17]): 9.97% | IC50 (CAPAN-1 [18]): 399 nM | Activity (MDA-MB-436 [19]): Active | inhibition in vivo at 100 mg/kg (MDA-MB-436 [20]): 65% | half-life [21]: 66 min | half-life [22]: 60 min | clearance [23]: 30 mL/min/kg | Vd [24]: 3 L/kg | Cmax [25]: 12300 ng/mL | Cmax [26]: 2590 ng/mL | AUC [27]: 5500 ng·h/mL | AUC [28]: 4990 ng·h/mL | bioavailability [29]: 45.4%

Cn1ncnc1[C@H]1c2n[nH]c(=O)c3cc(F)cc(c23)N[C@@H]1c1ccc(F)cc1 [TALAZOPARIB]
IC50 (MDA-MB-436 [1]): 0.7 nM | IC50 [2]: 4.2 nM | IC50 (V79): 5.01 µM | IC50 (CAPAN-1 [18]): 1.8 nM | inhibition in vivo at 0.5 mg/kg (CAPAN-1 [30]): 80% | half-life [31]: 276 min | t1/2 (Rattus norvegicus): 3.4 h | clearance [32]: 3.33 mL/min/kg | Vd [33]: 1.1 L/kg | Cmax [34]: 2060 ng/mL | Cmax [35]: 3100 ng/mL | AUC [36]: 6540 ng·h/mL | AUC [37]: 13200 ng·h/mL | bioavailability [38]: 104% | remaining at 1 h, 1 µM [39]: 106% | fraction unbound at 4 h, up to 50 µM [40]: 0.057 | half-life at 2 µM [41]: > 60 min | Papp A→B at 2 h [42]: 0.9 ×10⁻⁶ cm/s | Papp B→A at 2 h [43]: 51.8 ×10⁻⁶ cm/s | recovery at 2 h [44]: 98.4% | recovery at 2 h [45]: 108% | Activity (Mus musculus [46]): Toxic | Activity (Mus musculus [47]): Toxic
